Measurements: US20170000129A1, “METHOD FOR TREATING MINERAL SLURRIES WITH A BIOCIDE” (priority 2015, published 2017)

Experiments:
[1] = system: bacterial growth in kaolin slurry; assay: Kaolin slurry preservation test: biocide-dosed 65% solids slurry plated on standard method agar, samples as treated; assay type: cell-based, bacteria
Protocol: (§1) In the comparative testing, dry kaolin was mixed with water to achieve a 65% solid slurry material. This material contained no biocide. The slurry was then split into 200 gram aliquots and dosed with different biocides at different concentration as shown in Tables 1-3. All samples were kept at 50° C. until the end of the testing, which was up to 28 days.
A number of different and known biocides were used in the study and they include glutaraldehyde (glute), 1,2 benzithiazolin-3-one (BIT), tetrahydro-3-5-methyl-2H-1,3,5-thiadizine-2-thione (thione), isothiazoline (ISO), bronopol (BNPD) or orthophenyl phenate (OPP). For shorthand purposes, the study refers to the tradename of the biocide, which is found in the above listing of the biocides. Metam sodium is designated as SMDC and MDTCMA is used without change
(§2) The protocol for the testing of each sample is as follows: • 1) dosed with a recorded level of biocide; • 2) mixed for 24 hours contact time and plated using standard method agar for bacterial growth; • 3) remixed daily for 1 hour and retested for bacterial growth at Day 3; • 4) remixed daily for 1 hour and retested for bacterial growth at Day 7; • 5) remixed daily for 1 hour and retested for bacterial growth at Day 14; • 6) on day 20, samples were split into two containers: one container was inoculated (or challenged) with ˜10^5 cfu/ml bacteria, the other was left “as treated”, the challenge material was obtained from a contaminated kaolin product and is assumed to be representative of the types of bacteria that are seen in the kaolin industry, and the two sets of samples were prepared for Day 21 testing; • 7) both sets were remixed daily for 1 hour and retested for bacterial growth at Day 21; and • 8) both sets remixed daily for 1 hour and retested for bacterial growth at Day 28.
Different contact times were used to see how quickly the bacterial population was effected by the biocide.

[2] = system: bacteria from a contaminated kaolin product; assay: Kaolin slurry preservation test, challenge: on day 20 samples inoculated with ~10^5 cfu/ml bacteria from a contaminated kaolin product; assay type: cell-based
Protocol: as §1, §2

## CN1CSC(=S)N(C)C1 [24% Thione, tetrahydro-3,5-dimethyl-2H-1,3,5-thiadiazine-2-thione, reference compound]
[1]; 500 ppm, Table 2
  Log Red, contact time 1 day: 0
  Log Red, contact time 3 day: 3
  Log Red, contact time 7 day: 4
  Log Red, contact time 14 day: 4
  Log Red, contact time 21 day: 5
  Log Red, contact time 28 day: 5
  cfu/mL, contact time 1 day: 13,340,000 cfu/mL
  cfu/mL, contact time 3 day: 11,000 cfu/mL
  cfu/mL, contact time 7 day: 5,600 cfu/mL
  cfu/mL, contact time 14 day: 2,100 cfu/mL
  cfu/mL, contact time 21 day: 1,100 cfu/mL
  cfu/mL, contact time 28 day: 800 cfu/mL
[1]; 500 ppm, Table 3
  Log Red, contact time 1 day: 2
  Log Red, contact time 3 day: 2
  Log Red, contact time 7 day: 2
  Log Red, contact time 14 day: 3
  Log Red, contact time 21 day: 2
  Log Red, contact time 28 day: 2
  cfu/mL, contact time 1 day: 3,300 cfu/mL
  cfu/mL, contact time 3 day: 100 cfu/mL
  cfu/mL, contact time 7 day: 100 cfu/mL
  cfu/mL, contact time 14 day: 100 cfu/mL
  cfu/mL, contact time 21 day: 100 cfu/mL
  cfu/mL, contact time 28 day: 100 cfu/mL
[1]; 1000 ppm, Table 2
  Log Red, contact time 1 day: 1
  Log Red, contact time 3 day: 4
  Log Red, contact time 7 day: 4
  Log Red, contact time 14 day: 5
  Log Red, contact time 21 day: 5
  Log Red, contact time 28 day: 5
  cfu/mL, contact time 1 day: 6,670,000 cfu/mL
  cfu/mL, contact time 3 day: 6,800 cfu/mL
  cfu/mL, contact time 7 day: 2,600 cfu/mL
  cfu/mL, contact time 14 day: 1,200 cfu/mL
  cfu/mL, contact time 21 day: 300 cfu/mL
  cfu/mL, contact time 28 day: 200 cfu/mL
[1]; 1000 ppm, Table 3
  Log Red, contact time 1 day: 3
  Log Red, contact time 3 day: 2
  Log Red, contact time 7 day: 2
  Log Red, contact time 14 day: 3
  Log Red, contact time 21 day: 2
  Log Red, contact time 28 day: 2
  cfu/mL, contact time 1 day: 100 cfu/mL
  cfu/mL, contact time 3 day: 100 cfu/mL
  cfu/mL, contact time 7 day: 100 cfu/mL
  cfu/mL, contact time 14 day: 100 cfu/mL
  cfu/mL, contact time 21 day: 100 cfu/mL
  cfu/mL, contact time 28 day: 100 cfu/mL
[2]; 500 ppm, Table 2
  Log Red, 21 day Challenge: 3
  Log Red, 28 day Challenge: 4
  cfu/mL, 21 day Challenge: 39,000 cfu/mL
  cfu/mL, 28 day Challenge: 3,400 cfu/mL
[2]; 500 ppm, Table 3
  Log Red, 21 day Challenge: 5
  Log Red, 28 day Challenge: 5
  cfu/mL, 21 day Challenge: 100 cfu/mL
  cfu/mL, 28 day Challenge: 100 cfu/mL
[2]; 1000 ppm, Table 2
  Log Red, 21 day Challenge: 5
  Log Red, 28 day Challenge: 4
  cfu/mL, 21 day Challenge: 900 cfu/mL
  cfu/mL, 28 day Challenge: 1,500 cfu/mL
[2]; 1000 ppm, Table 3
  Log Red, 21 day Challenge: 5
  Log Red, 28 day Challenge: 5
  cfu/mL, 21 day Challenge: 100 cfu/mL
  cfu/mL, 28 day Challenge: 100 cfu/mL
[2]; after inoculation
  biocide effectiveness after inoculation, overall result of the studies: most effective biocides
